Results: ChEMBL document CHEMBL1201862, “PubChem BioAssay data set” (2004)
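Step 1: Grow cells in 96-well plates. Step 2: Expose to compound for 48 hours at 5 concentrations. Step 3: Interpolate endpoints linearly; if unreached, use highest concentration. GI50 is the concentration that inhibits growth by half.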 Activity calls are given as the source filed them. Cut-off read from the data, not from the text of the source: active = GI50 up to about 1.1 µM and inactive = higher.

Assays:
Assay in all cases: inhibition of tumour cell growth, NCI panel, 48 h
MOLT-4 = tested on: MOLT-4
Hs-578T = tested on: Hs-578T
NCI-H460 = tested on: NCI-H460
MCF7 = tested on: MCF7
SK-MEL-2 = tested on: SK-MEL-2
HOP-62 = tested on: HOP-62
K562 = tested on: K562
SK-MEL-28 = tested on: SK-MEL-28
UACC-62 = tested on: UACC-62
A549 = tested on: A549
SN12C = tested on: SN12C
MDA-N = tested on: MDA-N
HT-29 = tested on: HT-29
SW-620 = tested on: SW-620
786-0 = tested on: 786-0
TK-10 = tested on: TK-10
HOP-92 = tested on: HOP-92
SF-295 = tested on: SF-295
OVCAR-8 = tested on: OVCAR-8
A498 = tested on: A498

SMILES	GI50 (MOLT-4)	GI50 (Hs-578T)	GI50 (NCI-H460)	GI50 (MCF7)	GI50 (SK-MEL-2)	GI50 (HOP-62)	GI50 (K562)	GI50 (SK-MEL-28)	GI50 (UACC-62)	GI50 (A549)	GI50 (SN12C)	GI50 (MDA-N)	GI50 (HT-29)	GI50 (SW-620)	GI50 (786-0)	GI50 (TK-10)	GI50 (HOP-92)	GI50 (SF-295)	GI50 (OVCAR-8)	GI50 (A498)
CSCCC(NCc1c(O)ccc2ccc(=O)oc12)C(=O)O (stereo not given)	> 100 µM (inactive)	4.78 µM (inactive)	> 100 µM (inactive)	> 100 µM (inactive)	> 100 µM (inactive)	> 100 µM (inactive)	> 100 µM (inactive)	> 100 µM (inactive)	> 100 µM (inactive)	> 100 µM (inactive)	> 100 µM (inactive)	> 100 µM (inactive)	> 100 µM (inactive)	> 100 µM (inactive)	> 100 µM (inactive)	> 100 µM (inactive)	> 100 µM (inactive)	> 100 µM (inactive)	> 100 µM (inactive)	–
c1cc2cc3c4c5c(cc6ccc7cc8cc9c%10c8c8c7c6c5c8c5c%10c(c1C9N1CCOCCOCCOCCOCCOCC1)c2c45)C3 (stereo not given)	> 100 µM (inactive)	> 100 µM (inactive)	> 100 µM (inactive)	> 100 µM (inactive)	> 100 µM (inactive)	> 100 µM (inactive)	> 100 µM (inactive)	> 100 µM (inactive)	> 100 µM (inactive)	> 100 µM (inactive)	> 100 µM (inactive)	> 100 µM (inactive)	> 100 µM (inactive)	> 100 µM (inactive)	> 100 µM (inactive)	> 100 µM (inactive)	> 100 µM (inactive)	> 100 µM (inactive)	> 100 µM (inactive)	–
CCCCNC(=O)c1cc(S(=O)(=O)n2ccnc2O)c(SC)cc1Cl	> 100 µM (inactive)	> 100 µM (inactive)	> 100 µM (inactive)	> 100 µM (inactive)	> 100 µM (inactive)	> 100 µM (inactive)	> 100 µM (inactive)	> 100 µM (inactive)	> 100 µM (inactive)	> 100 µM (inactive)	> 100 µM (inactive)	> 100 µM (inactive)	> 100 µM (inactive)	> 100 µM (inactive)	> 100 µM (inactive)	> 100 µM (inactive)	–	> 100 µM (inactive)	> 100 µM (inactive)	26.1 µM (inactive)
CCOc1ccc(NC(=S)N/C=C(/C(C)=O)C(=O)Nc2ccccc2C)cc1	> 100 µM (inactive)	> 100 µM (inactive)	> 100 µM (inactive)	> 100 µM (inactive)	> 100 µM (inactive)	> 100 µM (inactive)	> 100 µM (inactive)	–	> 100 µM (inactive)	> 100 µM (inactive)	> 100 µM (inactive)	> 100 µM (inactive)	> 100 µM (inactive)	> 100 µM (inactive)	> 100 µM (inactive)	> 100 µM (inactive)	–	> 100 µM (inactive)	> 100 µM (inactive)	–
CC1=CC(O)(c2ccccc2)C(N2CCOCC2)N1O (stereo not given)	> 100 µM (inactive)	> 100 µM (inactive)	> 100 µM (inactive)	> 100 µM (inactive)	81.1 µM (inactive)	> 100 µM (inactive)	> 100 µM (inactive)	> 100 µM (inactive)	–	> 100 µM (inactive)	> 100 µM (inactive)	> 100 µM (inactive)	> 100 µM (inactive)	> 100 µM (inactive)	> 100 µM (inactive)	> 100 µM (inactive)	–	> 100 µM (inactive)	> 100 µM (inactive)	–
Cc1cc(-c2nc3c(F)cccc3s2)ccc1N	10.7 µM (inactive)	98.6 µM (inactive)	–	–	> 100 µM (inactive)	62.5 µM (inactive)	40.3 µM (inactive)	> 100 µM (inactive)	21 µM (inactive)	49.3 µM (inactive)	28.2 µM (inactive)	70.1 µM (inactive)	44.8 µM (inactive)	> 100 µM (inactive)	92.5 µM (inactive)	–	> 100 µM (inactive)	41.2 µM (inactive)	> 100 µM (inactive)	8.2 µM (inactive)
CN(C)c1ccc(/C=C/C(=O)CC(=O)/C=C/c2ccc(N(C)C)cc2)cc1	> 100 µM (inactive)	> 100 µM (inactive)	> 100 µM (inactive)	> 100 µM (inactive)	> 100 µM (inactive)	> 100 µM (inactive)	> 100 µM (inactive)	> 100 µM (inactive)	56.4 µM (inactive)	> 100 µM (inactive)	> 100 µM (inactive)	83.2 µM (inactive)	> 100 µM (inactive)	> 100 µM (inactive)	> 100 µM (inactive)	> 100 µM (inactive)	–	> 100 µM (inactive)	> 100 µM (inactive)	–
CCc1nnc2sc(-c3ccc(-c4ccc(Cl)cc4Cl)o3)nn12	44.1 µM (inactive)	74.8 µM (inactive)	67 µM (inactive)	–	58.7 µM (inactive)	61.9 µM (inactive)	47.2 µM (inactive)	> 100 µM (inactive)	–	73.5 µM (inactive)	60.7 µM (inactive)	66.5 µM (inactive)	96.2 µM (inactive)	> 100 µM (inactive)	32.9 µM (inactive)	43.7 µM (inactive)	21.4 µM (inactive)	43.1 µM (inactive)	71 µM (inactive)	30.3 µM (inactive)
COc1ccc2nc3c4c(nccc4c2c1)-c1ncccc1C3=O	0.847 µM (active)	–	0.0261 µM (active)	0.021 µM (active)	0.376 µM (active)	0.0193 µM (active)	0.016 µM (active)	0.109 µM (active)	0.048 µM (active)	0.113 µM (active)	0.0508 µM (active)	0.0631 µM (active)	0.499 µM (active)	0.0121 µM (active)	0.0246 µM (active)	0.18 µM (active)	0.092 µM (active)	0.08 µM (active)	0.034 µM (active)	0.0916 µM (active)
COc1cc(OC)c(C2c3cc4c(cc3OC(N3CCCC3)C2C)OCO4)c(OC)c1 (stereo not given)	10.9 µM (inactive)	3.77 µM (inactive)	13.2 µM (inactive)	14.9 µM (inactive)	18.7 µM (inactive)	16.5 µM (inactive)	19.7 µM (inactive)	18.4 µM (inactive)	16.6 µM (inactive)	19.7 µM (inactive)	15.3 µM (inactive)	15 µM (inactive)	10.3 µM (inactive)	9.59 µM (inactive)	15.9 µM (inactive)	19.1 µM (inactive)	–	8.97 µM (inactive)	16.3 µM (inactive)	–
N/C(S)=N/N=C/c1cc(CN2CCOCC2)c(N)cn1	48.1 µM (inactive)	> 100 µM (inactive)	38.4 µM (inactive)	31.4 µM (inactive)	84.3 µM (inactive)	30.3 µM (inactive)	89.5 µM (inactive)	–	42.4 µM (inactive)	–	62.4 µM (inactive)	56.1 µM (inactive)	50.2 µM (inactive)	62.1 µM (inactive)	65.2 µM (inactive)	43.4 µM (inactive)	–	36 µM (inactive)	18.5 µM (inactive)	37 µM (inactive)
c1ccc2c(c1)CC1c3[nH]c4ccccc4c3CCN21 (stereo not given)	> 10 µM (inactive)	> 10 µM (inactive)	> 10 µM (inactive)	> 10 µM (inactive)	> 10 µM (inactive)	> 10 µM (inactive)	> 10 µM (inactive)	> 10 µM (inactive)	> 10 µM (inactive)	> 10 µM (inactive)	> 10 µM (inactive)	> 10 µM (inactive)	> 10 µM (inactive)	> 10 µM (inactive)	> 10 µM (inactive)	> 10 µM (inactive)	> 10 µM (inactive)	> 10 µM (inactive)	> 10 µM (inactive)	–
CC(C)CCCCCCCCCCCCC(=O)NCC(=O)NC1C(C)OC(Nc2[nH]cnc3ncnc2-3)C(O)C1O (stereo not given)	0.00102 µM (active)	–	0.000158 µM (active)	< 0.01 µM (active)	0.00385 µM (active)	0.000361 µM (active)	0.00644 µM (active)	< 0.01 µM (active)	< 0.01 µM (active)	0.00128 µM (active)	0.00214 µM (active)	< 0.01 µM (active)	0.00125 µM (active)	0.00101 µM (active)	0.000491 µM (active)	0.00102 µM (active)	0.00028 µM (active)	0.00234 µM (active)	0.000153 µM (active)	–
O=C1NN=C2C=C(c3ccc(Cl)cc3)CC(c3cccc(Br)c3)C12 (stereo not given)	43.9 µM (inactive)	19.1 µM (inactive)	40 µM (inactive)	44 µM (inactive)	84.5 µM (inactive)	> 100 µM (inactive)	32.9 µM (inactive)	–	87.3 µM (inactive)	37.4 µM (inactive)	> 100 µM (inactive)	> 100 µM (inactive)	> 100 µM (inactive)	81.8 µM (inactive)	> 100 µM (inactive)	54.5 µM (inactive)	2.74 µM (inactive)	91.4 µM (inactive)	> 100 µM (inactive)	–
CCCCCC(C(O)C#N)C(O)(C(F)(F)F)C(F)(F)F (stereo not given)	> 10 µM (inactive)	> 10 µM (inactive)	–	> 10 µM (inactive)	–	> 10 µM (inactive)	> 10 µM (inactive)	> 10 µM (inactive)	> 10 µM (inactive)	> 10 µM (inactive)	> 10 µM (inactive)	> 10 µM (inactive)	> 10 µM (inactive)	> 10 µM (inactive)	> 10 µM (inactive)	> 10 µM (inactive)	> 10 µM (inactive)	> 10 µM (inactive)	> 10 µM (inactive)	–
